Measured values published in patent publication US9248089B2, “Peptide-based compounds as inhibitors of neurotransmitter secretion” (GRF (WUHAN) BIOTECHNOLOGY INC., priority 2011, dated 2016).
Peptide text beside a SMILES is read from it.

Tested on: HEK293 cells
Experiment: HEK293 cell assay (evaluation of biological degradation, HPLC of supernatant)
Format: in vitro ADME, Human
Details: for Degradation after incubation with HEK293 cells: 37° C., 1.0×10^6 HEK293 cells; for Degradation after incubation with HEK293 cells / Degradation pattern/profile compared with another compound: HPLC condition D; for Degradation pattern/profile compared with another compound: incubation with HEK293 cells
Description: The Human Embryonic Kidney 293 (HEK293) cells may be cultured in suspension. After the HEK293 cells are collected, the cells may be washed 3 times with PBS buffer before the assay.
The stock solution of peptide-based compounds may be made by dissolving the compound in PBS buffers or in DMSO. Other solutions or solvents may be used to dissolve the peptide-based compounds for this assay.
2. Add 10 μL of the stock solution of the peptide-based compound prepared above so that the final concentration of the peptide-based compound is around 1/10th of that of the stock.
3. Incubate the resulting mixture at 37° C. for 3, 5, 10, 20, or 30 min.
4. Remove the cells by centrifugation.
5. Collect an aliquot of the supernatant solution (20 μL) and loaded it onto a reverse-phase HPLC column (3.9×150 Nova-Pak C18, Waters, Mass., USA) on an HPLC system (125 solvent module, System Gold, Beckman, Calif., USA). Peptide peaks may be detected at the wavelength of 220 nm (Diode Array Detector module 168, Beckman, Calif., USA).

Row | Degradation after incubation with HEK293 cells (5 min incubation) | Degradation after incubation with HEK293 cells (10 min incubation) | Detectable Compound 2 as degradation intermediate (30 min incubation with HEK293 cells) | Compound | Detectable Compound 2 as degradation intermediate (5 min incubation with HEK293 cells) | Degradation pattern/profile compared with another compound | Degradation after incubation with HEK293 cells (3 min incubation) | Degradation after incubation with HEK293 cells (30 min incubation)
1 | degraded to at least two fragments | completed degraded to the two fragments | – | COC(=O)CC[C@H](NC(C)=O)C(=O)N[C@@H](CCC(=O)OC)C(=O)N[C@@H](CCSC)C(=O)N[C@@H](CCC(N)=O)C(=O)N[C@@H](CCCNC(=NC(=O)OC(C)(C)C)NC(=O)OC(C)(C)C)C(=O)N[C@@H](CCCNC(=NC(=O)OC(C)(C)C)NC(=O)OC(C)(C)C)C(N)=O [Compound 3, Ac-Glu(OMe)-Glu(OMe)-Met-Gln-Arg(Boc)2-Arg(Boc)2-NH2] | did not produce detectable intermediacy of Compound 2 | degraded in the same pattern as Compound 2 | – | –
2 | – | – | No Compound 2 was detectable | COC(=O)CC[C@H](NC(C)=O)C(=O)N[C@@H](CCC(=O)OC)C(=O)N[C@@H](CCSC)C(=O)N[C@@H](CCC(N)=O)C(=O)N[C@@H](CCCNC(=N)N)C(=O)N[C@@H](CCCNC(=N)N)C(N)=O [Compound 1, Ac-Glu(OMe)-Glu(OMe)-Met-Gln-Arg-Arg-NH2] (Ac-E(OMe)E(OMe)MQRR-NH2) | – | – | degraded to Compound 2 and at least one new fragment | fully degraded to at least one new fragment
3 | – | degraded to at least two fragments | – | Ac-EEMQRR-NH2 [Compound 2, Ac-Glu-Glu-Met-Gln-Arg-Arg-NH2, reference compound] | – | did not give the same degradation pattern as Compound 1 | – | –
